Ki and Kd data for 35 compounds are collected here from patent US7566727B2, “2-(1-aza-bicyclo[2.2.2]oct-3-yl)-2,3-dihydro-isoindole-1-one/5,6-dihydro-furo[2,3-c] pyrrol-4-one derivative ligands for alpha 7 nicotinic acetylcholine receptor” (priority 2004, dated 2009).

For the assay, the target named is α7 nAChR subtype (Rattus norvegicus, UniProt Q05941). The assay is described as follows: Test A: 125I-α-Bungarotoxin binding to rat hippocampal membranes (affinity at α7 nAChR subtype). The settings on record: for Ki: [125I]α-BTX displacement, rat hippocampal membranes. The method, then: Test A—Assay for Affinity at α7 nAChR subtype
125I-α-Bungarotoxin (BTX) binding to rat hippocampal membranes. Rat hippocampi were homogenized in 20 volumes of cold homogenization buffer (HB: concentrations of constituents (mM): tris(hydroxymethyl)aminomethane 50; MgCl2 1; NaCl 120; KCl 5: pH 7.4). The homogenate was centrifuged for 5 minutes at 1000 g, the supernatant was saved and the pellet re-extracted. The pooled supernatants were centrifuged for 20 minutes at 12,000 g, washed, and re-suspended in HB. Membranes (30-80 μg) were incubated with 5 nM [^125I] α-BTX, 1 mg/mL BSA (bovine serum albumin), test drug, and either 2 mM CaCl2 or 0.5 mM EGTA [ethylene glycol-bis(β-aminoethylether)] for 2 hours at 21° C., and then filtered and washed 4 times over Whatman glass fibre filters (thickness C) using a Brandel cell harvester.
Binding data analysis for Tests A and B
IC50 values and pseudo Hill coefficients (nH) were calculated using the non-linear curve fitting program ALLFIT (DeLean A, Munson P J and Rodbard D (1977) Am. J. Physiol., 235:E97-E102). […] Ki values were determined using 6 or more drug concentrations.

α7 nAChR subtype, sequence (Q05941 23-502): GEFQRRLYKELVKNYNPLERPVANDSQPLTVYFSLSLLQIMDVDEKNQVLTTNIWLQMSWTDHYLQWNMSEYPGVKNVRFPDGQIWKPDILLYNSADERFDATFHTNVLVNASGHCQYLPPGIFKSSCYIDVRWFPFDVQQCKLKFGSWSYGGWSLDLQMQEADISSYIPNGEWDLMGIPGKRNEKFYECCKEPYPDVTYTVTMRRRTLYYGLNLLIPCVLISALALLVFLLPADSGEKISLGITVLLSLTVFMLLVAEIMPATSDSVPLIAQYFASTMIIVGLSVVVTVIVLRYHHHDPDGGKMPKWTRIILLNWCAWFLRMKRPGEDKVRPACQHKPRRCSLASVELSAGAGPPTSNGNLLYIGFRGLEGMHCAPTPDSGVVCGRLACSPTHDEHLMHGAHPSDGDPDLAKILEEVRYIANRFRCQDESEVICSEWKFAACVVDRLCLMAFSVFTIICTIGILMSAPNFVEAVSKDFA

As usually defined, the Ki is the dissociation constant of the complex between target and ligand, obtained from inhibition or displacement. Lower therefore signals a stronger hold on the target. On to `CC(=O)Nc1cccc(-c2ccc3c(c2)C(=O)N([C@H]2CN4CCC2CC4)C3)c1` [Example 37, N-[3-((R)-2-1-Aza-bicyclo[2.2.2]oct-3-yl-3-oxo-2,3-dihydro-1H-isoindol-5-yl)-phenyl]-acetamide], for which the Ki worked out at 7 nM.
Still for that read-out and setting: the same measure for `CN(C)c1cccc(-c2ccc3c(c2)C(=O)N([C@H]2CN4CCC2CC4)C3)c1` [Example 71, 2-(R)-1-Aza-bicyclo[2.2.2]oct-3-yl-6-(3-dimethylamino-phenyl)-2,3-dihydro-isoindol-1-one]: 4.2 nM.
Compound `Cn1cc(-c2ccc3c(c2)C(=O)N([C@H]2CN4CCC2CC4)C3)cn1` [Example 50, 2-(R)-1-Aza-bicyclo[2.2.2]oct-3-yl-6-(1-methyl-1H-pyrazol-4-yl)-2,3-dihydro-isoindol-1-one] displayed a Ki of 61 nM.
On the same count and under the same terms, the same measure for `CS(=O)(=O)c1cccc(-c2ccc3c(c2)C(=O)N([C@H]2CN4CCC2CC4)C3)c1` [Example 43, 2-(R)-1-Aza-bicyclo[2.2.2]oct-3-yl-6-(3-methanesulfonyl-phenyl)-2,3-dihydro-isoindol-1-one]: 94 nM.
Still for that read-out and setting: the same measure for `CN(C)C(=O)c1ccc(-c2ccc3c(c2)C(=O)N([C@H]2CN4CCC2CC4)C3)cc1` [Example 40, 4-((R)-2-1-Aza-bicyclo[2.2.2]oct-3-yl-3-oxo-2,3-dihydro-1H-isoindol-5-yl)-N,N-dimethyl-benzamide]: 353 nM; for `O=C(Nc1cccc(-c2ccc3c(c2)C(=O)N([C@H]2CN4CCC2CC4)C3)c1)c1ccccc1` [Example 64, N-[3-((R)-2-1-Aza-bicyclo[2.2.2]oct-3-yl-3-oxo-2,3-dihydro-1H-isoindol-5-yl)-phenyl]-benzamide]: 3.9 nM.
`COc1ccccc1-c1ccc2c(c1)C(=O)N([C@H]1CN3CCC1CC3)C2` [Example 36, 2-(R)-1-Aza-bicyclo[2.2.2]oct-3-yl-6-(2-methoxy-phenyl)-2,3-dihydro-isoindol-1-one] had a Ki of 24 nM.
`O=C1c2cc(-c3ccc4c(c3)OCCO4)ccc2CN1[C@H]1CN2CCC1CC2` [Example 60, 2-(R)-1-Aza-bicyclo[2.2.2]oct-3-yl-6-(2,3-dihydro-benzo[1,4]dioxin-6-yl)-2,3-dihydro-isoindol-1-one] displayed a Ki of 28 nM.
`O=C1c2cc(-c3cnc4ccccc4c3)ccc2CN1[C@H]1CN2CCC1CC2` [Example 45, 2-(R)-1-Aza-bicyclo[2.2.2]oct-3-yl-6-quinolin-3-yl-2,3-dihydro-isoindol-1-one] displayed a Ki of 66.8 nM.
Turning to `CCN(CC)C(=O)c1cccc(-c2ccc3c(c2)C(=O)N([C@H]2CN4CCC2CC4)C3)c1` [Example 66, 3-((R)-2-1-Aza-bicyclo[2.2.2]oct-3-yl-3-oxo-2,3-dihydro-1H-isoindol-5-yl)-N,N-diethyl-benzamide], the Ki is 20 nM.
`CN1CCN(c2ccc3c(c2)C(=O)N([C@H]2CN4CCC2CC4)C3)CC1` [Example 38, 2-(R)-1-Aza-bicyclo[2.2.2]oct-3-yl-6-(4-methyl-piperazin-1-yl)-2,3-dihydro-isoindol-1-one] had a Ki of 424 nM.
In turn, `COc1cccc(-c2ccc3c(c2)C(=O)N([C@H]2CN4CCC2CC4)C3)c1` [Example 30, 2-(R)-1-Aza-bicyclo[2.2.2]oct-3-yl-6-(3-methoxy-phenyl)-2,3-dihydro-isoindol-1-one] returned an inhibitory constant (Ki) of 21.8 nM.
The compound `O=C1c2cc(-c3cccc4ncccc34)ccc2CN1[C@H]1CN2CCC1CC2` [Example 42, 2-(R)-1-Aza-bicyclo[2.2.2]oct-3-yl-6-quinolin-5-yl-2,3-dihydro-isoindol-1-one] displayed a Ki of 89.6 nM.
The same measure, in the same setting: to `O=C1c2cc(-c3cccc(OC(F)(F)F)c3)ccc2CN1[C@H]1CN2CCC1CC2` [Example 62, 2-(R)-1-Aza-bicyclo[2.2.2]oct-3-yl-6-(3-trifluoromethoxy-phenyl)-2,3-dihydro-isoindol-1-one] belongs 48 nM; to `CCNC(=O)c1ccc(-c2ccc3c(c2)C(=O)N([C@H]2CN4CCC2CC4)C3)cc1` [Example 53, 4-((R)-2-1-Aza-bicyclo[2.2.2]oct-3-yl-3-oxo-2,3-dihydro-1H-isoindol-5-yl)-N-ethyl-benzamide], 348 nM.
Take `O=C1c2cc(-c3cncc4ccccc34)ccc2CN1[C@H]1CN2CCC1CC2` [Example 48, 2-(R)-1-Aza-bicyclo[2.2.2]oct-3-yl-6-isoquinolin-4-yl-2,3-dihydro-isoindol-1-one]: the affinity, expressed as Ki, was 112 nM.
In turn, `O=C1c2cc(-c3cccc(OCc4ccccc4)c3)ccc2CN1[C@H]1CN2CCC1CC2` [Example 67, 2-(R)-1-Aza-bicyclo[2.2.2]oct-3-yl-6-(3-benzyloxy-phenyl)-2,3-dihydro-isoindol-1-one] displayed a Ki of 51 nM.
The compound `CSc1cccc(-c2ccc3c(c2)C(=O)N([C@H]2CN4CCC2CC4)C3)c1` [Example 72, 2-(R)-1-Aza-bicyclo[2.2.2]oct-3-yl-6-(3-methylsulfanyl-phenyl)-2,3-dihydro-isoindol-1-one] had a Ki of 37 nM.
In the case of `CC(C)Oc1cccc(-c2ccc3c(c2)C(=O)N([C@H]2CN4CCC2CC4)C3)c1` [Example 61, 2-(R)-1-Aza-bicyclo[2.2.2]oct-3-yl-6-(3-isopropoxy-phenyl)-2,3-dihydro-isoindol-1-one], the affinity corresponds to a Ki of 14 nM.
The compound `O=C1c2cc(-c3ccc4ncccc4c3)ccc2CN1[C@H]1CN2CCC1CC2` [Example 41, 2-(R)-1-Aza-bicyclo[2.2.2]oct-3-yl-6-quinolin-6-yl-2,3-dihydro-isoindol-1-one] showed a Ki of 329 nM.
Compound `O=C1c2cc(-c3ccc(Cl)cc3)ccc2CN1[C@H]1CN2CCC1CC2` [Example 32, 2-(R)-1-Aza-bicyclo[2.2.2]oct-3-yl-6-(4-chloro-phenyl)-2,3-dihydro-isoindol-1-one] registered a Ki of 90 nM.
`Nc1cccc(-c2ccc3c(c2)C(=O)N([C@H]2CN4CCC2CC4)C3)c1` [Example 57, 6-(3-Amino-phenyl)-2-(R)-1-aza-bicyclo[2.2.2]oct-3-yl-2,3-dihydro-isoindol-1-one] registered a Ki of 6.4 nM.
On the same count and under the same terms, the same measure for `O=C1c2cc(-c3cccc(Cl)c3)ccc2CN1[C@H]1CN2CCC1CC2` [Example 31, 2-(R)-1-Aza-bicyclo[2.2.2]oct-3-yl-6-(3-chloro-phenyl)-2,3-dihydro-isoindol-1-one]: 45.4 nM; for `COc1ccc(-c2ccc3c(c2)C(=O)N([C@H]2CN4CCC2CC4)C3)cc1` [Example 28, 2-(R)-1-Aza-bicyclo[2.2.2]oct-3-yl-6-(4-methoxy-phenyl)-2,3-dihydro-isoindol-1-one]: 77 nM; for `O=C1c2cc(-c3ccc4c(c3)OCO4)ccc2CN1[C@H]1CN2CCC1CC2` [Example 34, 2-(R)-1-Aza-bicyclo[2.2.2]oct-3-yl-6-benzo[1,3]dioxol-5-yl-2,3-dihydro-isoindol-1-one]: 37 nM.
As for `CS(=O)(=O)c1ccc(-c2ccc3c(c2)C(=O)N([C@H]2CN4CCC2CC4)C3)cc1` [Example 44, 2-(R)-1-Aza-bicyclo[2.2.2]oct-3-yl-6-(4-methanesulfonyl-phenyl)-2,3-dihydro-isoindol-1-one], the affinity corresponds to a Ki of 321 nM.
For the compound `O=C(NCc1ccccc1)c1ccc(-c2ccc3c(c2)C(=O)N([C@H]2CN4CCC2CC4)C3)cc1` [Example 56, 4-((R)-2-1-Aza-bicyclo[2.2.2]oct-3-yl-3-oxo-2,3-dihydro-1H-isoindol-5-yl)-N-benzyl-benzamide], the Ki came to 100 nM.
On the same count and under the same terms, to `COc1cc(OC)cc(-c2ccc3c(c2)C(=O)N([C@H]2CN4CCC2CC4)C3)c1` [Example 54, 2-(R)-1-Aza-bicyclo[2.2.2]oct-3-yl-6-(3,5-dimethoxy-phenyl)-2,3-dihydro-isoindol-1-one] belongs 669 nM.
Regarding “125I-α-Bungarotoxin [[^125I]-α-BTX, reference compound]”, the Kd (read-out: KD of radioligand (saturation curve, one site model)) was found to be 1.67 nM.
For the compound `O=C1c2cc(N3CCOCC3)ccc2CN1[C@H]1CN2CCC1CC2` [Example 39, 2-(R)-1-Aza-bicyclo[2.2.2]oct-3-yl-6-morpholin-4-yl-2,3-dihydro-isoindol-1-one], affinity was put at a Ki of 421 nM.
The same measure, in the same setting: to `CN(C)C(=O)c1cccc(-c2ccc3c(c2)C(=O)N([C@H]2CN4CCC2CC4)C3)c1` [Example 52, 3-((R)-2-1-Aza-bicyclo[2.2.2]oct-3-yl-3-oxo-2,3-dihydro-1H-isoindol-5-yl)-N,N-dimethyl-benzamide] belongs 31 nM.
Turning to `COc1cncc(-c2ccc3c(c2)C(=O)N([C@H]2CN4CCC2CC4)C3)c1` [Example 59, 2-(R)-1-Aza-bicyclo[2.2.2]oct-3-yl-6-(5-methoxy-pyridin-3-yl)-2,3-dihydro-isoindol-1-one], the Ki amounted to 383 nM.
With `O=C(c1cccc(-c2ccc3c(c2)C(=O)N([C@H]2CN4CCC2CC4)C3)c1)N1CCOCC1` [Example 68, 2-(R)-1-Aza-bicyclo[2.2.2]oct-3-yl-6-[3-(morpholine-4-carbonyl)-phenyl]-2,3-dihydro-isoindol-1-one], affinity was put at a Ki of 44 nM.
Compound `CC(=O)Nc1ccc(-c2ccc3c(c2)C(=O)N([C@H]2CN4CCC2CC4)C3)cc1` [Example 49, N-[4-((R)-2-1-Aza-bicyclo[2.2.2]oct-3-yl-3-oxo-2,3-dihydro-1H-isoindol-5-yl)-phenyl]-acetamide] registered a Ki of 3.2 nM.
Still for that read-out and setting: the same measure for `NC(=O)c1cccc(-c2ccc3c(c2)C(=O)N([C@H]2CN4CCC2CC4)C3)c1` [Example 55, 3-((R)-2-1-Aza-bicyclo[2.2.2]oct-3-yl-3-oxo-2,3-dihydro-1H-isoindol-5-yl)-benzamide]: 17 nM.
